Experimental data: patent US20240317762A1, “PHTHALAZINONE-BASED PARP-1 INHIBITORS” (Oregon Health & Science University, priority 2021, published 2024)

Experiments:
HEK 293T cells = test: cell proliferation (MTT) assay; assay type: cell-based, human; details: MTT, 72 h
Method: HEK 293T or HEK 293 PARP-1 KO cells were seeded in a 96 well plate at 1000-2000 cells per well. Following an overnight incubation, MTT reagent, 3-(4,5-dimethylthiazol-2-yl)-2,5-diphenyltetrazolium bromide, or a dosage curve of indicated inhibitor was added to each well in quadruplicate. Following a 3-hour incubation at 37° C., wells containing MTT reagent, were aspirated and lysed with 100 μl DMSO. These wells acting as a no growth control were collected, saved @ −20° C., and replaced with 100 μl water. The plate was placed back into the incubator for a total of 72 hours of inhibitor treatment prior to MTT reagent being added for a final time. Following a 3 hour incubation with the reagent, wells were aspirated, and 100 μl DMSO were added to each well, while the no growth control sample was added back to the plate. Absorbance was read on a SpectraMaxi3 plate reader (Molecular Devices). Percent growth was calculated for analysis. Statistical significance was assigned using individual t-tests between conditions for each inhibitor dosage.
Error bars represent SEM. […] Error bars represent SEM. […] Error bars represent SEM.

PARP-1 [1] = target: T1, PARP-1 (Homo sapiens, UniProt P09874); test: PARP-1 auto-PARylation activity assay in cells; assay type: cell-based
Method: Cells were washed with PBS, and lysed in RIPA buffer (50 mM Tris-HCl [pH 8.0], 150 mM NaCl, 0.1% SDS, 1% Triton X-100, 1× cOmplete™ protease inhibitors (Roche), and 1 μM Veliparib). […] Following quantification, 4× Laemmli sample buffer with 5% β-mercaptoethanol was added to 25-50 μg of protein.
Membrane blots were blocked with 5% milk-PBST for 1 h at RT, followed by incubation with a rabbit pan-ADP-ribose binding reagent (Cell Signaling), a rabbit PARP-1 antibody (Bethyl Laboratories), or a mouse b-actin antibody (Santa Cruz Biotechnology) for 2 h at RT, followed by incubation with HRP-conjugated secondary antibodies. […] Blots were imaged for chemiluminescent signal on a ChemiDoc MP system (BioRad). Statistical significance was established through multiple unpaired t-tests with nonlinear regression fit analysis.
FIGS. 5A-5F. […] An unlabeled competitor was added and the decrease in fluorescence polarization was measured across time. […] Error bars represent SEM. […] Error bars represent SEM. […] Cells were subsequently lysed using RIPA buffer, run out on SDS-PAGE, and probed for ADPr (Cell Signaling) and PARP-1 (Bethyl Laboratories). FIG. 5F) Quantification of western blot images. ADPr values are normalized to PARP-1 within each replicate and plotted as percentage compared to DMSO. Error bars indicate SEM (n=3).

PARP-1 [2] = target: T1, PARP-1; test: PARP-1 PARylation after washout (off-rate analysis); assay type: cell-based; details: 300 nM, 30 minutes, no washout; read-out: inhibition of PARP-1-mediated PARylation activity prior to washout
Method: For off-rate analysis, after 30 minute pre-treatment with indicated inhibitors, cells were washed once before incubating for 0, 3, 6, or 12 hours in fresh media. Following release times, cells were incubated with PDD 00017273 (10 μM) for 30 minutes before proceeding using the same western blot protocol detailed above. Statistical significance was established through multiple unpaired t-tests with nonlinear regression fit analysis.
FIGS. 6A-6E. […] 0.1 μM ad-olaparib (chemical structure indicated in panel a) was added to the cells for 1 hour before undergoing a UV treatment for 5 minutes in cold PBS. Cells were lysed and sonicated in PBS (1% Triton X-100+1% SDS), clicked with TAMRA-azide and run out on SDS-PAGE. The gel was imaged for TAMRA and probed for PARP-1 (Bethyl Laboratories), and alpha-tubulin (X). FIGS. 6B, 6D) Quantification of western blot images. TAMRA or ADPr values are normalized to PARP-1 within each replicate and plotted as percentage compared to DMSO. Error bars indicate SEM (n=3-4). Statistical significance of off-rate calculated via multiple t-tests (p<0.05). […] Cells were subsequently treated with PARGi (10 μM) for 30 minutes, lysed using RIPA buffer, run out on SDS-PAGE, and probed for ADPr (Cell Signaling) and PARP-1 (Bethyl Laboratories). […] IC50 values were calculated using R statistical software.

PARP-1 [3] = target: T1, PARP-1; test: in-cell competition labeling with ad-olaparib photoaffinity probe; assay type: cell-based
Method: Photocrosslinking in intact cells. HEK293 CRL and PARP-1 KO cells were grown in DMEM for 2 days in a 60 mm dish for 2 days to reach 80-90% confluency. […] Cells were then washed once with PBS, covered with PBS and irradiated for 5 min in the RPR-100 Photochemical Reactor (Rayonet) equipped with 350 nm lamps at 4° C. Cells were lysed on ice in 1% SDS, 1% Triton X-100 and EDTA-free protease inhibitor cocktail (Roche) in PBS for 10 min and then probe sonicated to shear the nuclear DNA. Protein concentration was determined with Bio-Rad Protein assay. The lysate was diluted in PBS to a final Click reaction concentration of 2 mg/mL.
Click Chemistry. Reaction was started by mixing 30 μL of each sample with 15 μL of PBS based 3× Click reaction mixture containing (final concentrations): 100 μM Tris[(1-benzyl-1H-1,2,3triazol-4-yl)methyl]amine (TBTA, Click Chemistry Tools), 1 mM CuSO4, 40 μM tetramethylrhodamine (TAMRA)-azide (Click Chemistry Tools), 1 mM Tris(2-carboxyethyl)phosphine hydrochloride (TCEP, Thermo Fisher) and 15% tert-Butyl alcohol, and let to procced for 1 h at RT while gently shaking. Reactions were stopped by adding 4× Laemmli sample buffer and boiling at 95° C. for 5 min.
In gel fluorescence, western blotting and quantification. Samples were loaded to 8 or 10% SDS-polyacrylamide gels and run until the dye front left the gel. First, in-gel fluorescence was detected with ChemiDoc XRS+ (Biorad) using Rhodamine filter and then the proteins were transferred on nitrocellulose membrane, the membrane was blocked and probed for PARP-1 (1:3000) and alpha-tubulin (1:1000). Both antibodies were from cell signaling. Band intensities we quantified with ImageJ.
(§1) FIGS. 6A-6E. […] 0.1 μM ad-olaparib (chemical structure indicated in panel a) was added to the cells for 1 hour before undergoing a UV treatment for 5 minutes in cold PBS. Cells were lysed and sonicated in PBS (1% Triton X-100+1% SDS), clicked with TAMRA-azide and run out on SDS-PAGE. The gel was imaged for TAMRA and probed for PARP-1 (Bethyl Laboratories), and alpha-tubulin (X). FIGS. 6B, 6D) Quantification of western blot images. TAMRA or ADPr values are normalized to PARP-1 within each replicate and plotted as percentage compared to DMSO. Error bars indicate SEM (n=3-4). Statistical significance of off-rate calculated via multiple t-tests (p<0.05). […] Cells were subsequently treated with PARGi (10 μM) for 30 minutes, lysed using RIPA buffer, run out on SDS-PAGE, and probed for ADPr (Cell Signaling) and PARP-1 (Bethyl Laboratories). FIG. 6E) ES-8 cells were treated with indicated concentration of inhibitors for 72 hours before measuring cell viability using the CellTiter-Glo kit (Promega G7573). IC50 values were calculated using R statistical software.

[4] = tested on: Ewing sarcoma cell line EW-8; test: ES-8 viability screen (CellTiter-Glo); assay type: cell-based
Method: Cell viability was measured using the CellTiter-Glo (Promega, G7573) assay and read using an Envision (PerkinElmer) plate reader. Compound source plates (96-well) were prepared by solubilizing each drug in DMSO to a maximum concentration of 1-50 mM, then arraying samples in 10-point dose-response with 3-fold dilution. Positive and negative controls (staurosporine at 10 mM and DMSO, respectively) were added to the source plates. Drug was transferred from the source plate to the assay plate using a Biomek FX (Beckman Coulter) liquid handler equipped with a pin tool which transferred ˜100 nl into a final volume of 100 μl, resulting in ˜1000-fold dilution. At least two biological replicates (assay performed on different day with same drug plate and independent cell preparation) were obtained for each drug. To analyze the assay, the relative light unit signal in each well was first log 2 transformed, then normalized by subtracting the mean of the negative controls wells on each plate.
as §1

PARP-1 [5] = target: T1, PARP-1; test: fluorescence polarization DNA binding affinity assay; details: 5 μM inhibitor; compared to DMSO control
Source text: The full-length WT PARP-1 protein used in these assays was purified as described previously (30).

PARP-1 [6] = target: T1, PARP-1; test: in vitro PARP-1 auto-PARylation assay (SRPK2 plate assay); assay type: biochemical; design: The full-length WT PARP-1 protein used in these assays; made in house
Method: IC50 SRPK2 Plate Assays were performed as previously described (21). Log(inhibitor) versus response curves were fit using non-linear regression with variable slope. Mean IC50 values for each compound were derived from a minimum of three separate replicates.

T1 sequence (P09874 whole entry): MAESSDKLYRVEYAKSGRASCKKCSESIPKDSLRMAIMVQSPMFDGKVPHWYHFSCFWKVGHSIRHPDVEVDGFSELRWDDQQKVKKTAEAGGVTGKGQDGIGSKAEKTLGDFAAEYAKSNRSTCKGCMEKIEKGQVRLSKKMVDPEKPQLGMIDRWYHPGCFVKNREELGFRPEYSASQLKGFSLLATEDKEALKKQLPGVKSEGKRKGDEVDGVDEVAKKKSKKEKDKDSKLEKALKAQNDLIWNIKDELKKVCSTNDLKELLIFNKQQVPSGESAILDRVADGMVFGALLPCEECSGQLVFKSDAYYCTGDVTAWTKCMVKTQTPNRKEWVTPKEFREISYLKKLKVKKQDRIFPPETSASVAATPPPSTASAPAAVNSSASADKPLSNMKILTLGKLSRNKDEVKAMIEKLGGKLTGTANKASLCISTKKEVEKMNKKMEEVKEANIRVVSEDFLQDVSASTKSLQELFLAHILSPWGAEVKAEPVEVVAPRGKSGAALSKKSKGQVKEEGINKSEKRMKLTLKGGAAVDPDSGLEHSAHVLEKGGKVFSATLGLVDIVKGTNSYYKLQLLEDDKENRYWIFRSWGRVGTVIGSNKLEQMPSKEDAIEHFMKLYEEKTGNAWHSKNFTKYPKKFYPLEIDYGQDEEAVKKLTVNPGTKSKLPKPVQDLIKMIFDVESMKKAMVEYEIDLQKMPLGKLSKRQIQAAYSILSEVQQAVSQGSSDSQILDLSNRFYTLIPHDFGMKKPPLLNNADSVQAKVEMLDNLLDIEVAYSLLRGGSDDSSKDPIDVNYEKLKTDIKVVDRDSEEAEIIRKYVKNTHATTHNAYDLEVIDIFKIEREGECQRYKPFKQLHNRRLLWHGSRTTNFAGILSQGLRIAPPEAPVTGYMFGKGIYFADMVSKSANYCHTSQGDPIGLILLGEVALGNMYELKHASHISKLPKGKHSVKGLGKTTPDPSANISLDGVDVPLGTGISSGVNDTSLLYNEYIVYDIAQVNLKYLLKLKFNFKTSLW

C[C@H]1Cn2c(nnc2C(C)(F)F)CN1C(=O)c1cc(Cc2n[nH]c(=O)c3ccccc23)ccc1F [Pip6, (S)-4-(3-(3-(1,1-difluoroethyl)-6-methyl-5,6,7,8-tetrahydro-[1,2,4]triazolo[4,3-a]pyrazine-7-carbonyl)-4-fluorobenzyl)phthalazin-1(2H)-one]
EC50 (HEK 293T cells; Homo sapiens, HEK-293T, read-out: EC50 cell growth): 0.94 nM
potency in inhibiting cell growth compared with AZ0108 (HEK 293T cells): substantially more potent than AZ0108
fold more potent than AZ0108 in inhibiting PARP-1 PARylation in HEK 293 cells (PARP-1 [1]): ~20 fold
EC50 (PARP-1 [1]; 30 min inhibitor, then PARG inhibitor PDD00017273, read-out: EC50 inhibiting PARP-1 PARylation in HEK 293 cells): 2.3 nM
IC50 (PARP-1 [1]; FIG. 5F, nonlinear regression, read-out: IC50 of dose curves, quantification of western blot (ADPr normalized to PARP-1)): 2.26 nM
inhibition at 0.3 µM (PARP-1 [2]): > 90%
labeling of PARP-1 by ad-olaparib after pre-treatment (PARP-1 [3]; 10 μM inhibitor, 0.1 μM ad-olaparib): substantially blocked
residence time on PARP-1 compared to AZ0108 (PARP-1 [3]; in cells and in vitro): longer residence time
recovery of labeling of PARP-1 by ad-olaparib after washout (PARP-1 [3]; washout (3 h)): not recovered
fold more cytotoxic than AZ0108 in Ewing sarcoma cells [4]: ~80 fold
Fold Difference to Pip6 ([4]; ratio of EC50 values): 1
EC50 ([4]; viability, 72 h): 0.24 nM
EC50 (nM) ([4]; viability, 72 h): sub-nanomolar
effect on the affinity of PARP-1 for nicked DNA (PARP-1 [5]): more pronounced effect on DNA binding than Pip5
potency against PARP-1 auto-PARylation compared with AZ0108 (PARP-1 [6]): equipotent
